Reference: ChEMBL document CHEMBL1127984, “Beneficial replacement of the P1 phenylalanine side chain in HIV-1 protease inhibitors of the difluorostatone type” (Bioorg Med Chem Lett, 1994)

Assays:
C8166 [1] = test: Effective dose that inhibits cellular growth of C8166 cells infected with HIV-1 RF strain; assay type: functional, cell-based; details: Homo sapiens
MT2 [2] = test: Effective dose that inhibits cellular growth of MT2 cells infected with HIV-1 105/A strain; assay type: functional, cell-based; details: Homo sapiens
MT4 [3] = test: Effective dose that inhibits cellular growth of MT-4 cells infected with HIV-1 RF strain; assay type: functional, cell-based; details: Homo sapiens
[4] = Ratio between Cytotoxic dose and effective dose was determined; assay type: functional
CCRF-CEM = test: Effective dose that inhibits cellular growth of CEM cells infected with HIV-1 IIIB strain; assay type: functional, cell-based; details: Homo sapiens
H9 [5] = test: Effective dose that inhibits cellular growth of H9 cells infected with HIV-1 RF strain; assay type: functional, cell-based; details: Homo sapiens
C8166 [6] = test: Effective dose that inhibits cellular growth of C8166 cells infected with HIV-2 rod strain; assay type: functional, cell-based; details: Homo sapiens
MT2 [7] = test: Effective dose that inhibits cellular growth of MT2 cells infected with HIV-1 105/F strain; assay type: functional, cell-based; details: Homo sapiens
Homo sapiens = organism: Homo sapiens; test: Effective dose that inhibits cellular growth of PBMCs cells infected with HIV-1 CCI strain; assay type: functional, cell-based; details: PBMC
JM1 [8] = test: Effective dose that inhibits cellular growth of JM cells infected with HIV-1 GB8 strain; assay type: functional, cell-based; details: Homo sapiens
H9 [9] = test: Effective dose that inhibits cellular growth of H9 cells infected with HIV-1 IIIB strain; assay type: functional, cell-based; details: Homo sapiens
C8166 [10] = test: Cytotoxic dose against HIV-1 was determined in C8166 cells; assay type: functional; details: Homo sapiens
MT4 [11] = test: […]; assay type: functional; details: Homo sapiens
JM1 [12] = test: Cytotoxic dose against HIV-1 GB8 strain was determined in JM cells; assay type: functional; details: Homo sapiens
H9 [13] = test: Effective dose that inhibits cellular growth of H9 cells infected with HIV-1 U455 strain; assay type: functional, cell-based; details: Homo sapiens
[14] = biological target: Human immunodeficiency virus type 1 protease (Human immunodeficiency virus 1, UniProt Q72874); test: Compound was tested for inactivation of purified HIV-1 protease in vitro
C8166 [15] = test: Effective dose that inhibits cellular growth of C8166 cells infected with SIV mac251 strain; details: Homo sapiens

Structure (SMILES) | EC50 (MT4 [3]) [nM] | Ratio [4] | CC50 (MT4 [11]) [µM] | Ki [14] [nM] | IC50 [14] [nM] | further results
CC(C)[C@H](NC(=O)OCc1ccccc1)C(=O)NC(Cc1ccc(OCc2ccccc2)cc1)C(=O)C(F)(F)C(=O)NCc1ccccc1 (some centres undefined) | 300 | >300 | > 100 | 5 |  | EC50 (C8166 [1]): 100 nM; EC50 (MT2 [2]): 230 nM; EC50 (CCRF-CEM): 720 nM; EC50 (H9 [5]): 56 nM; EC50 (C8166 [6]): 350 nM; EC50 (MT2 [7]): 380 nM; EC50 (Homo sapiens): 560 nM; EC50 (JM1 [8]): 140 nM; EC50 (H9 [9]): 290 nM; CC50 (C8166 [10]): > 100 µM; CC50 (JM1 [12]): > 100 µM; EC50 (H9 [13]): 420 nM; EC50 (C8166 [15]): 630 nM
CC(C)C[C@H](NC(=O)OCc1ccccc1)C(=O)NC(Cc1ccc(OCc2ccccc2)cc1)C(=O)C(F)(F)C(=O)NCc1ccccc1 (some centres undefined) | 190 | 17 | 3.2 |  | 15 | 
CC(C)[C@H](NC(=O)OCc1ccccc1)C(=O)NC(Cc1ccc(OCc2ccccc2)cc1)C(=O)C(F)(F)C(=O)N1CCOCC1 (some centres undefined) | 3200 | 20 | 64 | 5 |  | 
CC(C)[C@H](NC(=O)OC(C)(C)C)C(=O)NC(Cc1ccc(OCc2ccccc2)cc1)C(=O)C(F)(F)C(=O)NCc1ccccc1 (some centres undefined) | > 10000 |  | 10 |  |  | 
CC(C)[C@H](NC(=O)OCc1ccccc1)C(=O)NC(Cc1ccc(OCc2ccccc2)cc1)C(=O)C(F)(F)C(=O)N(C)Cc1ccccc1 (some centres undefined) | 280 | >300 | > 100 | 0.4 |  | 
CC(C)[C@H](NS(=O)(=O)Cc1ccccc1)C(=O)NC(Cc1ccc(OCc2ccccc2)cc1)C(=O)C(F)(F)C(=O)NCc1ccccc1 (some centres undefined) |  |  |  |  | 48000 | 
CC(C)[C@H](NC(=O)OCc1ccccc1)C(=O)NC(Cc1ccccc1)C(=O)C(F)(F)C(=O)N1CCc2ccccc2C1 (some centres undefined) |  |  |  |  | 50 | 
CC(C)[C@H](NC(=O)OCc1ccccc1)C(=O)NC(Cc1ccc(OCc2ccccc2)cc1)C(=O)C(F)(F)C(=O)N1CCc2ccccc2C1 (some centres undefined) | 360 | >280 | > 100 |  | 2 | 
CCN(Cc1ccccc1)C(=O)C(F)(F)C(=O)C(Cc1ccc(OCc2ccccc2)cc1)NC(=O)[C@@H](NC(=O)OCc1ccccc1)C(C)C (some centres undefined) | 8000 | ~1 | 10 |  | 15 | 
CC(C)[C@H](NC(=O)CCc1cccnc1)C(=O)NC(Cc1ccc(OCc2ccccc2)cc1)C(=O)C(F)(F)C(=O)NCc1ccccc1 (some centres undefined) | 320 | >100 | > 100 |  | 8 | 
CC(C)[C@H](NC(=O)OCc1ccccc1)C(=O)NC(Cc1ccccc1)C(=O)C(F)(F)C(=O)NCc1ccccc1 (some centres undefined) | 5000 | ~5 | 23 | 1 |  | 
O=C(NC(C(=O)NC(Cc1ccc(OCc2ccccc2)cc1)C(=O)C(F)(F)C(=O)NCc1ccccc1)C1CCCCC1)OCc1ccccc1 (centres undefined) | > 100000 |  | > 100 |  | 70 | 
O=C(NC(C(=O)NC(Cc1ccc(OCc2ccccc2)cc1)C(=O)C(F)(F)C(=O)NCc1ccccc1)C1CCCC1)OCc1ccccc1 (centres undefined) |  | >33 | > 100 |  | 6 | 
CC(C)[C@H](NC(=O)OCc1ccccc1)C(=O)NC(Cc1ccccc1)C(=O)C(F)(F)C(=O)N1CCOCC1 (some centres undefined) | 50000 | >2 | > 100 | 70 |  | 
